Assay [1] has as its target T1, Aβ(1-40) fibrils / biotinyl-Aβ(1-40) (Homo sapiens, UniProt P05067).
T1 construct: purchased Keck Biotechnology Center at Yale University
The assay can be described thus: Microplate Aβ(1-40) elongation screening assay, LOPAC library. As to conditions: for Initial stimulation observed: original LOPAC screen, deposition of biotinyl-Aβ(1-40) on immobilized fibrils. In kind it is biochemical. Here is the method: Microtiterplate Elongation and Screening Assays. The Aβ(1-40) microplate elongation assay has been described (12). For screening the compound library, plates were coated with 100 ng Aβ(1-40) fibrils and washed. The assay was initiated by adding to each well, in order, 80 μl assay buffer [PBSA (phosphate-buffered saline containing 0.05% (w/v) sodium azide) containing 0.05% Tween 20], 10 μl of a 1 mM solution of test compound in DMSO, and 10 μl 100 nM biotinyl-Aβ in assay buffer. Plates were incubated 30 mins at 37° C., then washed and the signal developed as described using a streptavidin-europium linked fluorescence assay (12, 13). Each microplate collection of compounds was assayed in triplicate, and results reported as % inhibition compared to control wells lacking test compounds.
We screened a small library of 640 compounds, the LOPAC library (Sigma), using a microplate-based Aβ elongation assay. In this assay, plastic wells containing immobilized fibrils are incubated with a biotin-tagged monomer in the presence or absence of potential modifiers (13, 18). We found a number of compounds with potent abilities to enhance deposition of the biotin-tagged Aβ(1-40) (FIG. 1). Seven of the compounds were selected for further analysis:—amiloride HCl, phenamil methane sulfonate, naftopidil dihydrochloride, NPC 15437 dihydrochloride, calmidazolium chloride (R24571), 5-(nonoxyl)-tryptamine hydrogen oxalate, and L-α-methyl DOPA. The compounds have a wide variety of structures and biochemical properties. The structures of these seven compounds are shown in FIG. 9, along with the percent stimulation observed in the experiments.
We characterized the activity of CLC in the microplate assay in more detail.

The next assay has as its target T2, Aβ (Homo sapiens, UniProt P05067).
T2 construct: purchased Keck Biotechnology Center at Yale University
Briefly: Secondary screening: aggregate formation in the absence of seeding Aβ amyloid fibrils. In kind it is biochemical. The source says:
Four compounds—calmidazolium chloride, NPC 15437, phenamil methane sulfonate, and amiloride HCl were chosen for secondary screening, e.g., assaying for formation of stabilized Aβ protofibrillar aggregates in the absence of seeding Aβ amyloid fibrils. All four compounds to be retested were purchased from Sigma.

The target of another assay is T3, Aβ(1-40) (Homo sapiens, UniProt P05067).
T3 construct: purchased Keck Biotechnology Center at Yale University
T3 sequence (P05067 672-711): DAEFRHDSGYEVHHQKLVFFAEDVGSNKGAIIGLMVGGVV
The assay can be described thus: Solution phase aggregation assay (ThT fluorescence, HPLC of centrifugation supernatants). In kind it is biochemical. Here is the method:
Aβ(1-40) peptides were disaggregated just prior to use, as described previously (12, 14). Peptides (50 μM in fibril formation reactions, approximately 30 μM in CLC aggregation reactions) were incubated in […] at 37° C. Reaction progress was followed by ThT fluorescence and/or quantitative HPLC on centrifugation (30 mins, 315,000×g) supernatants of reaction aliquots (12, 15). The Cr value is the concentration of Aβ in solution when this value stops changing with time. For amyloid fibril growth, this value represents a position of dynamic equilibrium and is the reciprocal of the growth equilibrium constant for the amyloid fibrils (15); for the CLC-induced aggregation, the value is a more qualitative measure of the stability of the Aβ-CLC aggregates. Samples of aggregates were stored at −80° C. after snap-freezing of washed pellets. Reactions with CLC contained 10% DMSO from the CLC stock solution.
To confirm the microtiter plate assay, we carried out solution phase experiments using unlabelled Aβ(1-40). […] During the ThT lag phase, the amount of soluble, monomeric Aβ is reduced by about a factor of two, consistent with the formation of protofibrillar structures with low ThT response (2). In contrast, in the presence of 100 μM CLC, Aβ(1-40) is rapidly converted to a pelletable aggregate, so that within 1-2 hrs only 2-3 μM Aβ remains in solution after centrifugation (FIG. 3a,b); when these aggregates are isolated by sedimentation, they are found to contain a ratio of 4 moles of CLC per mole of Aβ(1-40) (results of independent analyses against both HPLC and MS standard curves). The significance of this ratio is not clear.

The next assay concerns the target T4, Aβ (1-42) (Homo sapiens, UniProt P05067).
T4 construct: polymeric sheet intermediates using Aβ (1-42) and a compound Ro 90-7501
The following applies: cited from earlier work.

The target of assay [2] is CLC-Aβ(1-40) aggregates (stabilized Aβ protofibrillar aggregates made with calmidazolium chloride). Briefly: solution phase aggregation with 100 µM CLC; HPLC of centrifugation supernatants.
Setting [3] is: stimulation of Aβ deposition, microplate assay, read-out: EC50.

These results are taken from patent US20060079447A1, “Stabilized A-beta protofibrillar aggregates” (priority 2004, published 2006).

One may read the EC50 as the concentration needed to bring the measured effect to its halfway point.

Where a name gives a salt, the structure may show the parent alone. Read-outs that look alike come from different tables or passages of the source.

T2 sequence (P05067 672-711 limits assumed): as the sequence (P05067 672-711) above
T1 sequence (P05067 672-711): as above
T4 sequence (P05067 672-713): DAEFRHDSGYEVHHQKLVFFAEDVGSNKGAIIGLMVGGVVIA

In assay [1], `CCCCCCCCCOc1ccc2[nH]cc(CCN)c2c1.O=C(O)C(=O)O` [5-(nonyloxy)-tryptamine hydrogen oxalate] showed an EC50 of at least 30.3 µM and an Initial stimulation observed of 136%.

With `N=C(N)NC(=O)c1nc(Cl)c(N)nc1N` [Amiloride HCl, amiloride HCl], the “Activity in enhancing aggregate formation” value (“Activity” below) on Aβ is listed as “sub-optimal activity”. Besides, in assay [1], the Initial stimulation observed was found to be 96%. For the same compound, the EC50 in assay [1] (setting [3]) was at least 38.5 µM.

Turning to `Clc1ccc(C(c2ccc(Cl)cc2)n2cc[n+](CC(OCc3ccc(Cl)cc3Cl)c3ccc(Cl)cc3Cl)c2)cc1` (stereo not shown) [Calmidazolium chloride, calmidazolium chloride], on Aβ, the “Activity” value is “potent stabilizing compound”. In addition, the “ThT signal relative to the same weight of mature amyloid fibrils” value at Aβ(1-40) (100 μM CLC, after 14 days) is recorded as “about 20%”. On Aβ(1-40) (100 μM CLC, within 1-2 hrs), the “Aβ remaining in solution after centrifugation” value was 2 to 3 µM. The “Stimulation of Aβ deposition compared to the elongation reaction in the absence of added compound” value in assay [1] (at 100 μM) was “about six”. Besides, the “Concentrations at which deposition is stimulated (dose response)” value in assay [1] (deposition of 10 nM Aβ) was in the range of 10 to 100 µM. The same compound came in with an Initial stimulation observed in assay [1] of 598%. For the same compound, the EC50 in assay [1] (setting [3]) was at least 21.4 µM.

Regarding `C[C@](N)(Cc1ccc(O)c(O)c1)C(=O)O` [L-α-methyl DOPA], the Initial stimulation observed in assay [1] is 127%. For the same compound, the EC50 in assay [1] (setting [3]) was at least 34.2 µM.

Take `CCCCCCCCCCCCC(=O)N1CCCCC1CNC(=O)C(N)CCCCN` (stereo not shown) [NPC15437]: at Aβ, the “Activity” value is on record as “sub-optimal activity”. Besides, the Initial stimulation observed in assay [1] came to 149%. Moreover, in assay [1] (setting [3]), the EC50 was above 27.2 µM.

Turning to `COc1ccccc1N1CCN(CC(O)COc2cccc3ccccc23)CC1` (stereo not shown) [Naftopidil dihydrochloride, naftopidil dihydrochloride], the Initial stimulation observed in assay [1] is 150%. In addition, in assay [1] (setting [3]), the EC50 is at least 36.2 µM.

`NC(=Nc1ccccc1)NC(=O)c1nc(Cl)c(N)nc1N` [Phenamil methane sulfonate, phenamil methane sulfonate]: on Aβ, the “Activity” value is given as “sub-optimal activity”. The compound also gave an Initial stimulation observed in assay [1] of 242%. The EC50 in assay [1] (setting [3]) is at least 35.5 µM.

Regarding `Nc1ccc(-c2nc3ccc(-c4nc5ccc(N)cc5[nH]4)cc3[nH]2)cc1` [Ro 90-7501], the “Effect on formation of mature fibrils” value at Aβ (1-42) was “retarded but did not block formation of mature fibrils”.

With “P4: tetra-substituted Aβ(1-40) mutant with prolines at positions 9, 23, 30 and 37, SEQ ID NO:34 (DAEFRHDSPYEVHHQKLVFFAEPVGSNKGPIIGLMVPGVV; Amyloid-beta protein 40; UniProt P05067 672-711, looked up, variant G9P D23P A30P G37P)”, the “Stability of amyloid fibrils” value in the assay with Aβ(1-40) (scanning proline mutagenesis) is recorded as “same stability as wild type Aβ(1-40)”. Also, the “Stability of CLC aggregates” value with Aβ(1-40) (scanning proline mutagenesis, 100 μM CLC) is listed as “significantly destabilized compared to WT”.

Consider “WT Aβ(1-40): wild type Aβ(1-40) peptide, SEQ ID NO:1”, for which the “Cr value, protofibril formation” value with Aβ(1-40) (CLC-induced aggregation) was 1.6 µM. Further, the “Cr value, fibril formation” value in the assay with Aβ(1-40) (amyloid fibril growth) amounted to 0.8 µM.

For the compound “wild type Aβ(1-40) (disaggregated, monomeric) (peptide)”, the Cr (concentration of Aβ in solution when it stops changing with time) in assay [2] came to 1.6 µM.
